Data taken from US20230113037A1 (Bayer Aktiengesellschaft, priority 2019, published 2023).
pIC50: −log10 of the molar value. Where “and” joins values, the source holds several entries; their conditions need not be identical. Equal values may be shown once. Read-outs that look alike come from different tables or passages of the source.

Tests used:
[1] = biological target: T1, AHR (Homo sapiens, UniProt P35869); assay: In vitro assay 1: antagonism in human cell line (AHR transactivation, firefly luciferase reporter, kynurenic acid prestimulated); assay type: cell-based; details: AHR Antagonism Human IC50 [M]
T1 construct: U87 MG glioblastoma cells (ATCC #HTB-14) endogenously expressing AHR; endogenous in cells; host or cells: U87 MG glioblastoma cells (ATCC #HTB-14)
T1 sequence (P35869 11-848): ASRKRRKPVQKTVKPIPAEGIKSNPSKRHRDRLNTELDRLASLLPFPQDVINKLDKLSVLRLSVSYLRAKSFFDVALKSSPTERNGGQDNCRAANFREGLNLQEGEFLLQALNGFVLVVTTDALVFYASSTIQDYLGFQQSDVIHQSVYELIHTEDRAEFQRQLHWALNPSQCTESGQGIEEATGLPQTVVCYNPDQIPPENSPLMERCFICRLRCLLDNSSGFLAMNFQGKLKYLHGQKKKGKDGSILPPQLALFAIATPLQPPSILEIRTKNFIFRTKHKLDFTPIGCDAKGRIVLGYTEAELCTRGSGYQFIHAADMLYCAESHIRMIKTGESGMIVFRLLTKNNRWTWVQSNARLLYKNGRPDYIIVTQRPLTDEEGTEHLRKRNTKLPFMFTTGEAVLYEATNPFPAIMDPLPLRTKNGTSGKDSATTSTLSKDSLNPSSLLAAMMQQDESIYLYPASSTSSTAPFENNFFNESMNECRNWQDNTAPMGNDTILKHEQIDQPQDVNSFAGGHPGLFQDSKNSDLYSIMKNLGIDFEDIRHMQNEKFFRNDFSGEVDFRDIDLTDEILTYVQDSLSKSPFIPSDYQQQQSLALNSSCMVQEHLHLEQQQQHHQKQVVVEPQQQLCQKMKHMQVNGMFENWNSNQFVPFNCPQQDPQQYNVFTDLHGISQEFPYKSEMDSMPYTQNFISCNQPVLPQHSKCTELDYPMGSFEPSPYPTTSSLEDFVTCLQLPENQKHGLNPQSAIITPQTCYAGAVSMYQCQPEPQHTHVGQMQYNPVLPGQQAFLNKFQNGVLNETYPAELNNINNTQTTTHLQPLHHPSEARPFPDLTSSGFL
Method in brief: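 Antagonism is measured against kynurenic acid prestimulation in U87 MG glioblastoma cells carrying stable DRE-luciferase and Renilla reporters. Positive inhibition control: 150 μM kynurenic acid with 5 μM staurosporine. Values are normalized to controls; repeats are averaged or given as medians.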

[2] = biological target: T2, AHR (Mus musculus, UniProt P30561); assay: In vitro assay 3: antagonism in mouse cell line (AHR transactivation, firefly luciferase reporter, kynurenic acid prestimulated); assay type: cell-based
T2 sequence (P30561 1-848 P471L/N533S/M589L): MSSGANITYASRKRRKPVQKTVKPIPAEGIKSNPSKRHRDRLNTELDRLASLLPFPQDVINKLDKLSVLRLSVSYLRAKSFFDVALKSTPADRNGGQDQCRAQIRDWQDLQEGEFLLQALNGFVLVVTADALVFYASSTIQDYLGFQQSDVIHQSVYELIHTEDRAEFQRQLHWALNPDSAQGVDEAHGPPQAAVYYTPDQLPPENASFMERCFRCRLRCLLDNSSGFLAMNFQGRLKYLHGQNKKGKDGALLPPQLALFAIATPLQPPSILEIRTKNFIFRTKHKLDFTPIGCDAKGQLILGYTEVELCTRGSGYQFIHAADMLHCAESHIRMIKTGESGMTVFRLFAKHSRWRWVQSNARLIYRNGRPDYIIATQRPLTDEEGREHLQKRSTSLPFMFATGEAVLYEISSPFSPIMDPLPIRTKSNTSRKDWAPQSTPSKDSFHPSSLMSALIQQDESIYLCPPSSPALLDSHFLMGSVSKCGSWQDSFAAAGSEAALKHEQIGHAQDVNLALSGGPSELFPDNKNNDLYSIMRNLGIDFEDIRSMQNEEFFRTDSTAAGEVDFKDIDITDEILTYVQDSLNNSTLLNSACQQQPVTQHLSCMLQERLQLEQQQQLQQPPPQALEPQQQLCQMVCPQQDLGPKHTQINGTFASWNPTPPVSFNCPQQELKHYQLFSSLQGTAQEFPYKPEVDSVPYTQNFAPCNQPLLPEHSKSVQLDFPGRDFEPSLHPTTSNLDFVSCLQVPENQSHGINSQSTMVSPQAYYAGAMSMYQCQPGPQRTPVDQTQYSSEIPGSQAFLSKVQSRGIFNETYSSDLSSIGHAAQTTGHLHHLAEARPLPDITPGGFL
Method in brief: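 Luminescence from an AHR-dependent DRE-luciferase reporter, stably integrated in mouse cells, quantifies blockade of kynurenic acid-driven activation. Unstimulated cells mark maximal inhibition; normalization uses both control types, and multiply tested compounds carry mean or median values.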

[3] = Hepa 1c1c7 cells, 200 μM kynurenic acid, 20 hours, firefly luciferase reporter, read-out: AHR Antagonism Mouse IC50
[4] = mouse Hepa 1c1c7 cells, 200 μM kynurenic acid, 20 hours, read-out: AHR Antagonism Mouse IC50
[5] = read-out: AHR Antagonism Mouse IC50, mouse Hepa 1c1c7 cells, 200 μM kynurenic acid, 20 hours

Structure (SMILES)	IC50 ([1]; firefly luciferase reporter)	pIC50 [2, 3]	IC50 [1]	pIC50 [2, 4]	pIC50 [2, 5]
Cn1cc(-c2nc3c4cccc(Br)c4nc(N[C@H]4C[S+]([O-])CCNC4=O)n3n2)cn1 (single isomer, unassigned) [Example 849]	4.87e-07 M	6.29			
Cn1cc(-c2nc3c4cccc(Br)c4nc(N[C@H]4CS(=N)(=O)CCNC4=O)n3n2)cn1 (single isomer, unassigned) [Example 856]	> 2e-05 M	4.71 and < 4.70			
Cn1cc(-c2nc3c4cccc(Br)c4nc(N[C@H]4CS(=N)(=O)CCNC4=O)n3n2)cn1 (single isomer, unassigned) [Example 857]	4.25e-06 M	5.67			
Cn1cc(-c2nc3c4cccc(C(F)(F)F)c4nc(NC4C(=O)NCC4(C)C)n3n2)cn1 (single isomer, unassigned; (-)) [Example 729, (−)-4,4-dimethyl-3-{[2-(1-methyl-1H-pyrazol-4-yl)-7-(trifluoromethyl)[1,2,4]triazolo[1,5-c]quinazolin-5-yl]amino}pyrrolidin-2-one]			3.6e-06 M	6.79	
NC(=O)[C@@H](CO)Nc1nc2ccccc2c2nc(-c3ccccc3)nn12 [Example 2, N^2-(2-phenyl[1,2,4]triazolo[1,5-c]quinazolin-5-yl)-D-serinamide]			2.4e-08 M	7.16	
CC(C)[C@@H](Nc1nc2ccccc2c2nc(-c3ccccc3)nn12)C(N)=O [Example 3, N^2-(2-phenyl[1,2,4]triazolo[1,5-c]quinazolin-5-yl)-D-valinamide]			1.82e-09 M	9.37	
O=C1NCCCC[C@@H]1Nc1nc2ccccc2c2nc(-c3cccc(F)c3)nn12 [Example 10, (3S)-3-{[2-(3-fluorophenyl)[1,2,4]triazolo[1,5-c]quinazolin-5-yl]amino}azepan-2-one]			2.71e-08 M		8.10
O=C1NCCCC[C@H]1Nc1nc2ccccc2c2nc(-c3cccc(F)c3)nn12 [Example 11, (3R)-3-{[2-(3-fluorophenyl)[1,2,4]triazolo[1,5-c]quinazolin-5-yl]amino}azepan-2-one]			1.36e-09 M		9.24
CC[C@@H](Nc1nc2ccccc2c2nc(-c3cnn(C)c3)nn12)C(N)=O [Example 17, (2R)-2-{[2-(1-methyl-1H-pyrazol-4-yl)[1,2,4]triazolo[1,5-c]quinazolin-5-yl]amino}butanamide]			7.44e-08 M	7.56	
Cc1ccccc1-c1nc2c3ccccc3nc(N[C@H]3CCCCNC3=O)n2n1 [Example 41, (3S)-3-{[2-(2-methylphenyl)[1,2,4]triazolo[1,5-c]quinazolin-5-yl]amino}azepan-2-one]			2.12e-08 M		8.77
Cc1ccccc1-c1nc2c3ccccc3nc(N[C@@H]3CCCCNC3=O)n2n1 [Example 42, (3R)-3-{[2-(2-methylphenyl)[1,2,4]triazolo[1,5-c]quinazolin-5-yl]amino}azepan-2-one]			3.03e-10 M		9.80

Now from value to compound, other results behind:

IC50 ([1]; firefly luciferase reporter)	pIC50 [2, 3]	IC50 [1]	pIC50 [2, 4]	Structure (SMILES)	pIC50 [2, 5]
7.05e-09 M	6.83			COc1ccc(-c2nc3c4cccc(S(C)(=N)=O)c4nc(N[C@@H]4CCCCNC4=O)n3n2)cc1 (single isomer, unassigned) [Example 854]	
2.28e-09 M	7.58			COc1ccc(-c2nc3c4cccc(S(C)(=N)=O)c4nc(N[C@@H]4CCCCNC4=O)n3n2)cc1 (single isomer, unassigned) [Example 855]	
		1.68e-09 M	9.04	CC[C@@H](Nc1nc2ccccc2c2nc(-c3ccccc3)nn12)C(N)=O [Example 4, (2R)-2-[(2-phenyl[1,2,4]triazolo[1,5-c]quinazolin-5-yl)amino]butanamide]	
		5.93e-10 M	< 5.00	O=C1NCCCC[C@H]1Nc1nc2ccccc2c2nc(-c3ccc(Cl)cc3)nn12 [Example 6]	
		5.44e-08 M	6.98	O=C1NCCCC1Nc1nc2ccccc2c2nc(-c3cccc(F)c3)nn12 (stereo not shown) [Example 8, 3-{[2-(3-fluorophenyl)[1,2,4]triazolo[1,5-c]quinazolin-5-yl]amino}piperidin-2-one]	
		2.62e-08 M	7.17	O=C1NCCC1Nc1nc2ccccc2c2nc(-c3cccc(F)c3)nn12 (stereo not shown) [Example 9, 3-{[2-(3-fluorophenyl)[1,2,4]triazolo[1,5-c]quinazolin-5-yl]amino}pyrrolidin-2-one]	
		1.31e-08 M	8.08	Cn1cc(-c2nc3c4ccccc4nc(N[C@@H]4CCCCNC4=O)n3n2)cn1 [Example 12, (3R)-3-{[2-(1-methyl-1H-pyrazol-4-yl)[1,2,4]triazolo[1,5-c]quinazolin-5-yl]amino}azepan-2-one]	
		1.21e-06 M	5.14	Cn1cc(-c2nc3c4ccccc4nc(NC4CCCNC4=O)n3n2)cn1 (stereo not shown) [Example 13, 3-{[2-(1-methyl-1H-pyrazol-4-yl)[1,2,4]triazolo[1,5-c]quinazolin-5-yl]amino}piperidin-2-one]	
		2.14e-07 M	6.63	Cn1cc(-c2nc3c4ccccc4nc(N[C@H]4CCCCNC4=O)n3n2)cn1 [Example 14, (3S)-3-{[2-(1-methyl-1H-pyrazol-4-yl)[1,2,4]triazolo[1,5-c]quinazolin-5-yl]amino}azepan-2-one]	
		1.78e-05 M	5.11	Cn1cc(-c2nc3c4ccccc4nc(NC4CCNC4=O)n3n2)cn1 (stereo not shown) [Example 15, 3-{[2-(1-methyl-1H-pyrazol-4-yl)[1,2,4]triazolo[1,5-c]quinazolin-5-yl]amino}pyrrolidin-2-one]	
		4.03e-10 M	9.28	COc1ccc(-c2nc3c4ccccc4nc(N[C@@H]4CCCCNC4=O)n3n2)cc1 [Example 29, (3R)-3-{[2-(4-methoxyphenyl)[1,2,4]triazolo[1,5-c]quinazolin-5-yl]amino}azepan-2-one]	
		1.59e-08 M	7.27	COc1ccc(-c2nc3c4ccccc4nc(N[C@@H]4CCNC4=O)n3n2)cc1 [Example 39, (3R)-3-{[2-(4-methoxyphenyl)[1,2,4]triazolo[1,5-c]quinazolin-5-yl]amino}pyrrolidin-2-one]	
		2.08e-08 M	6.42	COc1ccc(-c2nc3c4ccccc4nc(N[C@H]4CCNC4=O)n3n2)cc1 [Example 40, (3S)-3-{[2-(4-methoxyphenyl)[1,2,4]triazolo[1,5-c]quinazolin-5-yl]amino}pyrrolidin-2-one]	
		8.65e-09 M	7.70	Cc1ccccc1-c1nc2c3ccccc3nc(NC3CCNC3=O)n2n1 (stereo not shown) [Example 43, 3-{[2-(2-methylphenyl)[1,2,4]triazolo[1,5-c]quinazolin-5-yl]amino}pyrrolidin-2-one]	
		1.57e-08 M	7.77	Cc1ccccc1-c1nc2c3ccccc3nc(NC3CCCNC3=O)n2n1 (stereo not shown) [Example 44, 3-{[2-(2-methylphenyl)[1,2,4]triazolo[1,5-c]quinazolin-5-yl]amino}piperidin-2-one]	
